In publication PMC11748363, “Antimicrobial and Antiproliferative Properties of 2‐Phenyl‐N‐(Pyridin‐2‐yl)acetamides” (Chemical Biology & Drug Design, 2025):
Values after ≈ are worked out from the molar mass of the structure shown. Where two headings read alike, the source gives them in different places.

Columns and labels:
[1] = tested on: Candida albicans CCM 8320, ATCC 24433; assay: Antifungal microdilution broth MIC, CA
[2] = tested on: Escherichia coli CCM 3954, ATCC 25922; assay: Antibacterial microdilution broth MIC, EC; type: cell-based
[3] = tested on: Aspergillus flavus CCM 8363; assay: Antifungal microdilution broth MIC, AFla
[4] = tested on: Staphylococcus epidermidis CCM 4418, ATCC 12228; assay: Antibacterial microdilution broth MIC, SE; type: cell-based
[5] = tested on: Staphylococcus aureus CCM 4223, ATCC 29213; assay: Antibacterial microdilution broth MIC, SA; type: cell-based; conditions: Staphylococcus aureus
[6] = tested on: Mycolicibacterium aurum DSM 43999; assay: Antimycobacterial microdilution broth MIC (resazurin), M. aurum; type: cell-based; conditions: DSM43999, read-out: MIC M. aurum
[7] = tested on: Candida tropicalis CCM 8264, ATCC 750; assay: Antifungal microdilution broth MIC, CT
[8] = tested on: Enterococcus faecalis CCM 4224, ATCC 29212; assay: Antibacterial microdilution broth MIC, EF; type: cell-based
[9] = tested on: Trichophyton interdigitale CCM 8377, ATCC 9533; assay: Antifungal microdilution broth MIC, TI; conditions: Trichophyton interdigitale
[10] = tested on: Pseudomonas aeruginosa CCM 3955, ATCC 27853; assay: Antibacterial microdilution broth MIC, PA; type: cell-based
[11] = tested on: Mycolicibacterium smegmatis DSM 43465; assay: Antimycobacterial microdilution broth MIC (resazurin), M. smegmatis; type: cell-based; conditions: DSM43465, read-out: MIC M. smegmatis
[12] = tested on: Mycobacterium tuberculosis H37Ra; assay: Antimycobacterial microdilution broth MIC (resazurin), Mtb H37Ra; type: cell-based; conditions: Mycobacterium tuberculosis, H37RA, read-out: MIC Mtb H37Ra
[13] = tested on: Lichtheimia corymbifera CCM 8077; assay: Antifungal microdilution broth MIC, LC
[14] = tested on: Staphylococcus aureus subsp. aureus CCM 4750, ATCC 43300 (MRSA); assay: Antibacterial microdilution broth MIC, MRSA; type: cell-based; conditions: Staphylococcus aureus
[15] = tested on: Acinetobacter baumannii DSM 30007, ATCC 19606; assay: Antibacterial microdilution broth MIC, ACI; type: cell-based
[16] = tested on: Klebsiella pneumoniae CCM 4415, ATCC 10031; assay: Antibacterial microdilution broth MIC, KP
[17] = tested on: Candida krusei CCM 8271, ATCC 6258; assay: Antifungal microdilution broth MIC, CK; conditions: Pichia kudriavzevii
[18] = tested on: HepG2 cell line; assay: Cytotoxicity CellTiter 96, HepG2; type: cell-based, human; conditions: Homo sapiens, HepG2, 24 h, 24 h incubation; ^c compound precipitated in the testing medium; ^d over the limit of tested concentrations
[19] = tested on: Candida parapsilosis CCM 8260, ATCC 22019; assay: Antifungal microdilution broth MIC, CP; conditions: Lodderomyces parapsilosis
[20] = tested on: Aspergillus fumigatus ATCC 204305; assay: Antifungal microdilution broth MIC, AF
[21] = CCM8363, 24 h, read-out: MIC AFla 24h
[22] = CCM8363, 48 h, read-out: MIC AFla 48h
[23] = CCM8077, 24 h, read-out: MIC LC 24h
[24] = CCM8077, 48 h, read-out: MIC LC 48h
[25] = ATCC204305, 24 h, read-out: MIC AF 24h
[26] = ATCC204305, 48 h, read-out: MIC AF 48h

Compound | MIC ([1]; 24 h, read-out: MIC CA 24h) | MIC ([1]; 48 h, read-out: MIC CA 48h) | MIC ([2]; 24 h, read-out: MIC EC 24h) | MIC ([2]; 48 h, read-out: MIC EC 48h) | MIC [3, 21] | MIC [3, 22] | MIC ([4]; 24 h, read-out: MIC SE 24h) | MIC ([4]; 48 h, read-out: MIC SE 48h) | MIC ([5]; 24 h, read-out: MIC SA 24h) | MIC ([5]; 48 h, read-out: MIC SA 48h) | MIC [6] | MIC ([7]; 24 h, read-out: MIC CT 24h) | MIC ([7]; 48 h, read-out: MIC CT 48h) | MIC ([8]; 24 h, read-out: MIC EF 24h) | MIC ([8]; 48 h, read-out: MIC EF 48h) | MIC ([9]; 72 h, read-out: MIC TI 72h) | MIC ([9]; 120 h, read-out: MIC TI 120h) | MIC ([10]; 24 h, read-out: MIC PA 24h) | MIC ([10]; 48 h, read-out: MIC PA 48h) | MIC [11] | other results
COc1ccc(CC(=O)Nc2ccc(Cl)cn2)cc1 [Compound 11, 2-(4-methoxyphenyl)-N-(5-chloropyridin-2-yl)acetamide] | > 500 µM | > 500 µM | > 500 µM | > 500 µM | > 500 µM | > 500 µM | > 500 µM | > 500 µM | 250 µM (≈ 69.2 µg/mL) | 500 µM (≈ 138 µg/mL) | > 500 µg/mL | > 500 µM | > 500 µM | > 500 µM | > 500 µM | > 500 µM | > 500 µM | > 500 µM | > 500 µM | > 500 µg/mL | MIC ([12]; Calculated from MIC (μg/mL)): > 1800 µM; MIC [12]: > 500 µg/mL; MIC [13, 23]: > 500 µM; MIC [13, 24]: > 500 µM; MIC ([14]; 24 h, read-out: MIC MRSA 24h): > 500 µM; MIC ([14]; 48 h, read-out: MIC MRSA 48h): > 500 µM; MIC ([15]; 24 h, read-out: MIC ACI 24h): > 500 µM; MIC ([15]; 48 h, read-out: MIC ACI 48h): > 500 µM; MIC KP 24h [16]: > 500 µM; MIC KP 48h [16]: > 500 µM; MIC ([17]; 24 h, read-out: MIC CK 24h): > 500 µM; MIC ([17]; 48 h, read-out: MIC CK 48h): > 500 µM; IC50 [18]: 399 µM; MIC ([19]; 24 h, read-out: MIC CP 24h): > 500 µM; MIC ([19]; 48 h, read-out: MIC CP 48h): > 500 µM; MIC [20, 25]: > 500 µM; MIC [20, 26]: > 500 µM
O=C(Cc1ccccc1Cl)Nc1ccccn1 [Compound 13, 2-(2-chlorophenyl)-N-(pyridin-2-yl)acetamide] | > 500 µM | > 500 µM | > 500 µM | > 500 µM | > 500 µM | > 500 µM | 500 µM (≈ 123 µg/mL) | 500 µM (≈ 123 µg/mL) | > 500 µM | > 500 µM | 250 µg/mL (≈ 1010 µM) | > 500 µM | > 500 µM | > 500 µM | > 500 µM | 500 µM (≈ 123 µg/mL) | 500 µM (≈ 123 µg/mL) | > 500 µM | > 500 µM | > 500 µg/mL | MIC ([12]; Calculated from MIC (μg/mL)): 253 µM; MIC [12]: 62.5 µg/mL; MIC [13, 23]: > 500 µM; MIC [13, 24]: > 500 µM; MIC ([14]; 24 h, read-out: MIC MRSA 24h): > 500 µM; MIC ([14]; 48 h, read-out: MIC MRSA 48h): > 500 µM; MIC ([15]; 24 h, read-out: MIC ACI 24h): > 500 µM; MIC ([15]; 48 h, read-out: MIC ACI 48h): > 500 µM; MIC KP 24h [16]: > 500 µM; MIC KP 48h [16]: > 500 µM; MIC ([17]; 24 h, read-out: MIC CK 24h): > 500 µM; MIC ([17]; 48 h, read-out: MIC CK 48h): > 500 µM; IC50 [18]: 755 µM; MIC ([19]; 24 h, read-out: MIC CP 24h): > 500 µM; MIC ([19]; 48 h, read-out: MIC CP 48h): > 500 µM; MIC [20, 25]: > 500 µM; MIC [20, 26]: > 500 µM
O=C(Cc1ccccc1Cl)Nc1ccc(Cl)cn1 [Compound 14, 2-(2-chlorophenyl)-N-(5-chloropyridin-2-yl)acetamide] | > 500 µM | > 500 µM | > 500 µM | > 500 µM | > 500 µM | > 500 µM | > 500 µM | > 500 µM | > 500 µM | > 500 µM | > 500 µg/mL | > 500 µM | > 500 µM | > 500 µM | > 500 µM | > 500 µM | > 500 µM | > 500 µM | > 500 µM | > 500 µg/mL | MIC ([12]; Calculated from MIC (μg/mL)): > 1780 µM; MIC [12]: > 500 µg/mL; MIC [13, 23]: > 500 µM; MIC [13, 24]: > 500 µM; MIC ([14]; 24 h, read-out: MIC MRSA 24h): > 500 µM; MIC ([14]; 48 h, read-out: MIC MRSA 48h): > 500 µM; MIC ([15]; 24 h, read-out: MIC ACI 24h): > 500 µM; MIC ([15]; 48 h, read-out: MIC ACI 48h): > 500 µM; MIC KP 24h [16]: > 500 µM; MIC KP 48h [16]: > 500 µM; MIC ([17]; 24 h, read-out: MIC CK 24h): > 500 µM; MIC ([17]; 48 h, read-out: MIC CK 48h): > 500 µM; IC50 [18]: > 50 µM; MIC ([19]; 24 h, read-out: MIC CP 24h): > 500 µM; MIC ([19]; 48 h, read-out: MIC CP 48h): > 500 µM; MIC [20, 25]: > 500 µM; MIC [20, 26]: > 500 µM
